Experimental data from publication PMC8652888, “Angiogenesis, Anti-Tumor, and Anti-Metastatic Activity of Novel α-Substituted Hetero-Aromatic Chalcone Hybrids as Inhibitors of Microtubule Polymerization” (Frontiers in Chemistry, 2021).
Values joined by “and” are separate entries in the source; they are usually repeats but may differ in a detail not shown here. Equal values may be shown once. Read-outs that look alike come from different tables or passages of the source.

Columns and labels:
U937 = assay: Antiproliferative activity, CCK-8 assay; assay type: cell-based; settings: Homo sapiens, U-937
Method: (§1) The synthesized compounds were first evaluated for their cytotoxic effect on MCF-7 (human breast adenocarcinoma), U937 (histiocytic lymphoma cancer), HepG2 (human liver cancer) cells, and MGC-803 (human gastric cancer) using the SRB and CCK-8 assay. As reference compounds CA-4 and colchicine were included.
(§2) The primary tumor cells were purchased from a professional biomedical company. First, the primary tumor cells were incubated in a cell culture incubator at 37°C and 5% CO2. After the cell fusion reached 85%–95%, subculture was performed, and the tumor cells obtained at this time were used for subsequent related experiments. The CCK-8 method was used to inhibit the proliferation of U937 tumor cells, and the SRB method was used to inhibit the proliferation of MCF7 and HepG2 tumor cells.
(§3) The cells in the logarithmic growth phase were seeded in a 96-well plate at 8,000/well, and the drug-containing medium and cell suspension were added to the well. Three wells were added with the blank medium as the blank group. The 96-well plate was incubated for 72 h in a 37°C, 5% CO2 incubator. The 10 μl of CCK-8 dye solution was added to each well, and the incubation continued for 3–4 h.

MCF-7 = assay: Antiproliferative activity, SRB assay; assay type: cell-based, human;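 note: proliferation of MCF7 cells quantified by sulforhodamine B staining, with optical density read at 560 nm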
HepG2 = assay: Antiproliferative activity, SRB assay; assay type: cell-based, human; settings: Homo sapiens, HepG2
Method: as §1, §2
(§4) Cells were distributed into 96-well plates with a density of 3 × 10^3–4 × 10^3 cells per well and incubated for 24 h in a 5% CO2 incubator at 37°C, followed by treatment with study compounds at different concentrations at 37°C for 72 h. One hundred microliters of 10% (w/v) trichloroacetic acid was added to each well, fixed at 4°C for 30 min, and dried at 65°C. Then 100 μl of 0.4% SRB was added to each well and stained on a shaker for 20 min at room temperature. The excess dye solution was washed with newly prepared 1% glacial acetic acid and dried at 65°C. One hundred fifty microliters of 10 mM unbuffered Trisbase was added to each well of the plate and shaken for 5 min to dissolve the dye. The microplate reader measured the optical density (OD) at a wavelength of 560 nm.

[1] = system: taxol-resistant MCF7 cells (MCF7/Tax); assay: Growth inhibition of taxol-resistant cells; assay type: cell-based, human
normal liver LO2 cells = assay: Growth inhibition of normal cells; assay type: cell-based, human
MGC-803 = assay: Antiproliferative activity (SRB and CCK-8 assay); assay type: cell-based; settings: Homo sapiens
Source text: as §1

[2] = system: MCF-7, U937, HepG2 and MGC-803 cells; assay: Antiproliferative activity, cancer cell panel (text summaries); assay type: cell-based, human; settings: Homo sapiens; U937, MCF-7, HepG2, MGC-803; read-out: IC50 against four cancer cell lines
Method: as §1, §2, §4, §3

[3] = 72 h, triplicate, mean ± SD, read-out: IC50 ± SD, U937
[4] = supplement raw data, read-out: IC50/U937
[5] = Homo sapiens, MCF7, 72 h, 72 h, triplicate, mean ± SD, read-out: IC50 ± SD, MCF-7
[6] = Homo sapiens, MCF7, Table 3, triplicate, read-out: IC50 ± SD, MCF7
[7] = Homo sapiens, MCF7, supplement raw data, read-out: IC50/MCF
[8] = Homo sapiens, MCF7, three single determinations, read-out: MCF-7 (raw data of table 3, IC50)
[9] = 72 h, triplicate, mean ± SD, read-out: IC50 ± SD, HepG2
[10] = Homo sapiens, MCF7, three single determinations, read-out: MCF-7/Taxol (raw data of table 3, IC50)
[11] = Homo sapiens, MCF7, triplicate, read-out: IC50 ± SD, MCF7/Tax
[12] = Homo sapiens, L02, three single determinations, read-out: L02 (raw data of table 3, IC50)
[13] = Homo sapiens, L02, triplicate, read-out: IC50 ± SD, LO2
[14] = triplicate, mean ± SD, read-out: IC50 ± SD, MGC-803
[15] = supplement raw data, read-out: IC50/MGC

Structure (SMILES) | IC50 (U937; [3]) [nM] | IC50 (MCF-7; [5]) [nM] | IC50 (MCF-7; [7]) [nM] | IC50 (HepG2; [9]) [nM] | IC50 (MGC-803; [14]) [nM] | melting point [°C] | IC50 (MGC-803; [15]) [nM] | also measured
COc1ccc(/C=C\c2cc(OC)c(OC)c(OC)c2)cc1O [CA-4, reference compound] | 0.3 ± 0.1 | 11.4 ± 0.2 | 11.4 ± 0.2 | 7.1 ± 0.9 |  |  |  | IC50 (U937; [4]): 0.326 ± 0.1 nM; IC50 (MCF-7; [6]): 11.4 ± 0.2 nM; IC50 (MCF-7; [8]): 11.8 nM; IC50 (HepG2; supplement raw data, read-out: IC50/Hepg2): 7.09 ± 0.9 nM; IC50 [1, 10]: 20.2 nM; IC50 [1, 11]: 21.2 ± 0.6 nM; IC50 ([1]; three single determinations, read-out: MCF-7/Taxol (raw data of table 3, IC50)): 22.1 nM and 21.3 nM; IC50 (normal liver LO2 cells; [12]): 14.1 nM; IC50 (normal liver LO2 cells; [13]): 15.2 ± 0.5 nM; IC50 (normal liver LO2 cells; three single determinations, read-out: L02 (raw data of table 3, IC50)): 16.2 nM and 15.3 nM
COC(=O)c1cccc2[nH]cc(/C=C/C(=O)c3cc(OC)c(OC)c(OC)c3)c12 [Compound 6d, methyl(E)-3[3-oxo-3-(3,4,5-trimethoxyphenyl)prop-1-en-1-yl]-1H-indole-4-carboxylate] | > 20000 | > 20000 |  | > 20000 | > 20000 | 221.7 to 223.6 |  | IC50 [2]: > 20000 nM
COC(=O)c1ccc2[nH]cc(/C=C/C(=O)c3cc(OC)c(OC)c(OC)c3)c2c1 [Compound 6e, methyl(E)-3[3-oxo-3-(3,4,5-trimethoxyphenyl)prop-1-en-1-yl]-1H-indole-5-carboxylate] | > 20000 | > 20000 |  | > 20000 | > 20000 | 218.7 to 220.3 |  | IC50 [2]: > 20000 nM
COc1cc(C(=O)/C=C/c2c[nH]c3cc(Br)ccc23)cc(OC)c1OC [Compound 6g, (E)-3-(6-bromo-1H-indol-3-yl)-1-(3,4,5-trimethoxyphenyl)prop-2-en-1-one] | > 20000 | 380 ± 20 | 380 | 18100 ± 295 | 71 ± 2 | 216.4 to 217.6 | 70.6 | 
COc1cc(C(=O)/C=C/c2cc3ccccc3o2)cc(OC)c1OC [Compound 6h, (E)-3-(benzofuran-2-yl)-1-(3,4,5-trimethoxyphenyl)prop-2-en-1-one] | > 20000 | 14600 ± 368 |  | > 20000 | 8780 ± 309 | 79.5 to 80.3 |  | 
COc1cc(C(=O)/C=C/c2coc3ccccc23)cc(OC)c1OC [Compound 6j, (E)-3-(benzofuran-3-yl)-1-(3,4,5-trimethoxyphenyl)prop-2-en-1-one] | 786 ± 346 | 988 ± 6 | 988 | 4820 ± 102 | 395 ± 15 | 117.5 to 120.8 | 395 | IC50 (U937; [4]): 786 nM
COc1cc(C(=O)/C=C/c2ccc3oc4ccccc4c3c2)cc(OC)c1OC [Compound 6l, (E)-3-[dibenzo (b,d)furan-2-yl]1-(3,4,5-trimethoxyphenyl)prop-2-en-1-one] | 2080 ± 252 | 810 ± 68 | 810 | 3270 ± 65 | 326 ± 16 | 56.5 to 57.6 | 326 | 
COc1cc(C(=O)/C=C/c2ccc3occc3c2)cc(OC)c1OC [Compound 6m, (E)-3-(benzofuran-5-yl)-1-(3,4,5-trimethoxyphenyl)prop-2-en-1-one] | 6170 ± 1640 | 6460 ± 103 |  | > 20000 | 3180 ± 62 | 110.5 to 115.3 |  | 
COc1cc(C(=O)/C=C/c2ccc3c(c2)CCO3)cc(OC)c1OC [Compound 6n, (E)-3-(2,3-dihydrobenzofuran-5-yl)-1-(3,4,5-trimethoxyphenyl)prop-2-en-1-one] | > 20000 | 3130 ± 415 |  | > 20000 | 851 ± 63 | 107.5 to 110.3 | 851 | 
COc1cc(C(=O)/C=C/c2cc3ccccc3s2)cc(OC)c1OC [Compound 6o, (E)-3-(benzo[b]thiophen-2-yl)-1-(3,4,5-trimethoxyphenyl)prop-2-en-1-one] | > 20000 | 2070 ± 43 |  | 8380 ± 585 | 1380 ± 86 | 115.5 to 116.9 |  | 
COc1cc(C(=O)/C=C/c2csc3ccccc23)cc(OC)c1OC [Compound 6p, (E)-3-(benzo[b]thiophen-3-yl)-1-(3,4,5-trimethoxyphenyl)prop-2-en-1-one] | > 20000 | 283 ± 11 | 283 | 1380 ± 136 | 76 ± 1 | 95.5 to 96.4 | 75.7 | 
COc1cc(C(=O)/C=C/c2ccc3sc4ccccc4c3c2)cc(OC)c1OC [Compound 6q, (E)-3[dibenzo (b,d)thiophen-2-yl]-1-(3,4,5-trimethoxyphenyl)prop-2-en-1-one] | 6380 ± 148 | 5090 ± 569 |  | 10600 ± 457 | 3220 ± 284 | 118.7 to 119.2 |  | 
COc1cc(C(=O)/C=C/c2nc3ccccc3n2C)cc(OC)c1OC [Compound 6r, (E)-3-[1-methyl-1H-benzo (d)imidazol-2-yl]-1-(3,4,5-trimethoxyphenyl)prop-2-en-1-one] | 1280 ± 71 | 5190 ± 465 |  | 4670 ± 295 | 2030 ± 225 | 123.5 to 125.2 |  | 
COc1cc(C(=O)/C=C/c2cccc3c2OCO3)cc(OC)c1OC [Compound 6s, (E)-3-(benzo[d][1,3]dioxol-4-yl)-1-(3,4,5-trimethoxyphenyl)prop-2-en-1-one] | > 20000 | 1230 ± 133 |  | 3320 ± 229 | 393 ± 17 | 138.4 to 140.3 | 393 | 
CC(=O)O[C@H]1C(=O)[C@@]2(C)[C@H]([C@H](OC(=O)c3ccccc3)[C@]3(O)C[C@H](OC(=O)[C@H](O)[C@@H](NC(=O)c4ccccc4)c4ccccc4)C(C)=C1C3(C)C)[C@]1(OC(C)=O)CO[C@@H]1C[C@@H]2O [Taxol, paclitaxel] |  |  |  |  |  |  |  | IC50 (MCF-7; [6]): 24.6 ± 3.2 nM; IC50 (MCF-7; [8]): 20.6 nM; IC50 (MCF-7; three single determinations, listed as TaxolL, read-out: MCF-7 (raw data of table 3, IC50)): 28.3 nM and 24.9 nM; Resistant fold ([1]; (IC50 MCF7/Tax)/(IC50 MCF7)): 13.7; IC50 [1, 10]: 334 nM; IC50 [1, 11]: 336 ± 18 nM; IC50 ([1]; three single determinations, listed as TaxolL, read-out: MCF-7/Taxol (raw data of table 3, IC50)): 315 nM and 359 nM; Selectivity ratio (normal liver LO2 cells; (IC50 human normal cells LO2)/(IC50 MCF7)): 1.3; IC50 (normal liver LO2 cells; [12]): 32.1 nM; IC50 (normal liver LO2 cells; [13]): 32.4 ± 1.9 nM; IC50 (normal liver LO2 cells; three single determinations, listed as TaxolL, read-out: L02 (raw data of table 3, IC50)): 34.5 nM and 30.6 nM
